Results: patent US8507460B2, “Substituted 3′,5′-cyclic phosphates of purine nucleotide compounds and pharmaceutical compositions for the treatment of viral infections” (priority 2011, dated 2013)

Tests used:
[1] = Stability in rat whole blood; assay type: in vitro ADME
[2] = Stability in simulated gastric and intestinal fluids; assay type: in vitro ADME; settings: 100 μM, 2 hours at 37° C., percent of peak area at time zero
Description: Simulated gastric and intestinal fluids containing pepsin and pancreatin respectively were prepared according to the U.S. Pharmacopoeia USP291 procedure (www.pharmacopeia.cn/v29240/usp29nf24s0_ris1s126.html). Test compound (final concentration 100 μM) was incubated in duplicate in the appropriate fluid for 2 hours at 37° C. The samples were quenched with 200 μl cold acetonitrile, vortexed for 30 seconds and then centrifuged at 16,100 g for 10 min. The supernatants were analyzed by HPLC on a C-18 column with UV detection at 252 nm. The time 0 samples were prepared by adding SGF or SIF fluid to the quenching solvent followed by the test compound. Stability of the compound was determined by peak area the test compound after incubation and calculated as percent of the peak area observed at time zero.

[3] = Plasma and liver pharmacokinetics following a single oral dose in mice (Example 6); assay type: in vivo; settings: mouse, plasma, CD-1 mice, oral 25 mg/kg, 1a average of N = 2
Description: For each compound, a single oral dose at 25 mg/kg in PEG 200 (dose volume 5 mL/kg) was administered to [CD-1] mice. Untreated animals were used for the collection of control liver. Terminal liver and plasma samples were collected from three animals per time point at 4, 12 and 24 hours post dose and additionally at 1 hour post dose in one occasion of Compound 1 (see Example 5). Liver specimens were collected from all animals immediately after the incision. Freezing forceps stored in liquid nitrogen were used to freeze the liver before excision.
(§1) Plasma samples were analyzed for the prodrug and 2′-methylguanosine (2′-MeG) or relevant nucleoside by LC-MS/MS. For protein precipitation and extraction, each plasma sample (50 μL) was treated with 500 μL of 0.2% formic acid in acetonitrile and 20 μL of an appropriate internal standard working solution. After vortexing and centrifugation, 500 μL of the sample extracts were transferred to a new plate, dried under N2 at ˜28° C. and reconstituted with 75 μL of 0.2% FA in water. The extracts were chromatographed on an Aquasil C18 column using a gradient system of 0.2% formic acid in water and acetonitrile. The analytes were detected and quantified by tandem mass spectrometry in positive ion mode on an MDS Sciex API5000 or an API4000 equipped with a Turbo Ionspray® interface. The calibration range was 0.500 (LLOQ) to 200 ng/mL in mouse plasma. The corresponding range for molar units is 1.68 to 673 pmol/mL.
(§2) Liver samples were analyzed for the active species 2′-methylguanosine triphosphate (2′-MeGTP) or relevant nucleoside triphosphate by LC-MS/MS. The triphosphate levels were assayed by homogenizing (on ice) a known weight of mouse liver with 4× volume of 0.95 M trichloroacetic acid (TCA). Appropriate internal standard solution was added to the homogenate followed by neutralization with 20% ammonium hydroxide solution and addition of 500 μL 1% formic acid. The tissue samples were extracted by weak anion exchange solid phase extraction (SPE). Post extraction, the eluates were evaporated under nitrogen, followed by reconstitution before injection onto the LC-MS/MS system. The samples were chromatographed on a Luna NH2 column using a gradient system of ammonium acetate (1 mM to 20 mM and pH 8.0 to pH 10.0) in water and acetonitrile (70:30). The analyte was detected and quantified by tandem mass spectrometry in positive ion mode on an API4000 equipped with a Turbo Ionspray® interface. The calibration range was 10 to 10000 pmol/mL in mouse liver homogenate (50 to 50000 pmol/g of mouse liver).

[4] = Plasma and liver pharmacokinetics following a single oral dose in monkeys (Example 6); assay type: in vivo; settings: cynomolgus monkey, plasma, Cynomolgus monkeys, single oral dose (mg/kg per Table 6: 1a 10, A 25, B 10, C 10, D 50)
Description: […] Untreated animals were used for the collection of control liver. Plasma samples were collected at 1, 2, 4, 6, 8, 12 and 24 hours for all compounds and additionally at 0.5 hour (Compounds 1a, B and D), 3 and 10 hours (Compound C), and 32 and 48 hours post dose for Compound A. Terminal liver samples were collected from three animals per time point at 6, 12 and 24 hours post dose for all compounds and additionally at 2 hours (Compounds 1a, B and D), 3 hours (Compound C) and 32 and 48 hours post dose for Compound A. Liver specimens were collected from all animals immediately after the incision. Freezing forceps stored in liquid nitrogen were used to freeze the liver before excision.
as §1, §2

[5] = Stability in fresh human whole blood; assay type: in vitro ADME; settings: 0.5 μM, percent unchanged
Description: (§3) Stability of test compounds were determined in fresh human whole blood with K2EDTA as the anticoagulant (stored refrigerated at 2-8° C. and used within 7 days of receipt). The experiment was conducted with three replicates for each time point. Whole blood, pre-incubated at 37° C. for 10-15 minutes, was fortified with a solution of test compound for a final concentration of 0.5 μM and mixed for 30 sec. At intervals (0, 0.5, 1 and 2 hr), three […] aliquots were combined with 200 μL (each) of an ice-cold solution of the internal standard (carbutamide 500 ng/mL in acetonitrile). The samples were vortexed for 30 sec and then centrifuged at 16,100 g for 5 min. The supernatant was analyzed by LC-MS/MS. The MS peak area ratio of the test compound versus the internal standard was calculated and percent unchanged test compound was calculated for each time point using this ratio.

[6] = Cytotoxicity evaluation, CellTiter-Blue Cell Viability Assay; assay type: cell-based; settings: human, Zluc cells, read-out: HCV Replicon CC50
Description: For cytotoxicity evaluation, Zluc cells were treated with compound as described above, and cell viability was monitored using the CellTiter-Blue Cell Viability Assay (Promega) by adding 20 μL of the assay solution to each well. The plates were then incubated at 37° C./5% CO2 for at least 3 hours.

Stability in mouse blood = assay type: in vitro ADME; settings: mouse whole blood, on ice, percent unchanged
Description: as §3
The stability in mouse blood was determined on ice at 0, 0.5 and 1 hr as above.

[7] = normalized to 1 μmol/kg dose, read-out: Plasma prodrug AUC0-24
[8] = normalized to 1 μmol/kg dose, read-out: Plasma prodrug Cmax

**Q.** Which “Stability WB_Rat (ice; 1 hr)” value [1] does the source give for `CCOc1nc(N)nc2c1ncn2[C@@H]1O[C@@H]2COP(=O)(OC(C)C)O[C@H]2[C@@]1(C)O` (single isomer, unassigned) [Compound 1a] here?
**A.** 105%

**Q.** And the “Stability SGF” value ([2]; simulated gastric fluid with pepsin)?
**A.** 99%

**Q.** And the “Stability SIF” value ([2]; simulated intestinal fluid with pancreatin)?
**A.** 99%

**Q.** And the AUC(0-t) [3, 7]?
**A.** 0.34 µM·h

**Q.** What about the Cmax [3, 8] of the same compound?
**A.** 43 nM

**Q.** And the Tmax ([3]; read-out: Plasma prodrug Tmax)?
**A.** 3 h

**Q.** What about the AUC(0-t) [4, 7] of the same compound?
**A.** 0.15 µM·h

**Q.** And the Cmax [4, 8]?
**A.** 22 nM

**Q.** What about the Tmax ([4]; read-out: Plasma prodrug Tmax) of the same compound?
**A.** 2 h

**Q.** And the “Stability WB_Human (37° C.; 2 hr)” value [5]?
**A.** 101%

**Q.** And the CC50 at 72 h [6]?
**A.** > 50 µM

**Q.** And the “Stability WB_Mouse (ice; 1 hr)” value (Stability in mouse blood)?
**A.** 94%
